Laboratory results taken from ChEMBL document CHEMBL1145804, “Synthesis and characterization of the first fluorescent antagonists for human 5-HT4 receptors” (J Med Chem, 2003).

What was measured:
[1] = target: T1, 5-hydroxytryptamine receptor 4 (Homo sapiens, UniProt Q13639); assay: Binding affinity towards cloned human 5-hydroxytryptamine 4E receptor expressed in C6 glial cells using [3H]GR-113808 as radioligand; type: cell-based
[2] = target: T1, 5-hydroxytryptamine receptor 4; assay: Antagonist activity (inhibition of 5-HT-stimulated cAMP synthesis) of compound at cloned human 5-hydroxytryptamine 4E receptor expressed in C6 glial cells by Schild analysis

T1 sequence (Q13639 whole entry): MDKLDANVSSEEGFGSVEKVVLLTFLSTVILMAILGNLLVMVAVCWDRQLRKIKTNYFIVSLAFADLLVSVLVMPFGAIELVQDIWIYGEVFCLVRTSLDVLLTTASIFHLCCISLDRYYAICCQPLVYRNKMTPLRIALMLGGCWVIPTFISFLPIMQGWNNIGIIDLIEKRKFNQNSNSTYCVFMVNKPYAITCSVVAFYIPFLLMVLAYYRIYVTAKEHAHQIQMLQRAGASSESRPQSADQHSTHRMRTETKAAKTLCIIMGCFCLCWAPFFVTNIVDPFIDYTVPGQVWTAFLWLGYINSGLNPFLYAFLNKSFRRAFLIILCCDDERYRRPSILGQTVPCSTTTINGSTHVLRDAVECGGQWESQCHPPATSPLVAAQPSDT

Structure (SMILES)	Ki [1]	Kb [2]
COc1cc(N)c(Cl)cc1C(=O)OCCN1CCC(CN2C(=O)c3cccc4c(N)ccc(c34)C2=O)CC1	64 nM	9 nM
COc1cc(N)c(Cl)cc1C(=O)OCCN1CCC(CCNS(=O)(=O)c2cccc3c(N(C)C)cccc23)CC1	77 nM	–
COc1cc(N)c(Cl)cc1C(=O)OCCN1CCC(CCCNS(=O)(=O)c2cccc3c(N(C)C)cccc23)CC1	32 nM	–
COc1cc(N)c(Cl)cc1C(=O)OCCN1CCN(C(=O)CCCCCCCNS(=O)(=O)c2cccc3c(N(C)C)cccc23)CC1	31 nM	–
COc1cc(N)c(Cl)cc1C(=O)OCCN1CCN(C(=O)CCCNS(=O)(=O)c2cccc3c(N(C)C)cccc23)CC1	183 nM	–
COc1cc(N)c(Cl)cc1C(=O)OCCN1CCN(C(=O)CCCCCNS(=O)(=O)c2cccc3c(N(C)C)cccc23)CC1	180 nM	–
COc1cc(N)c(Cl)cc1C(=O)OCCN1CCN(C(=O)CCCCCCCCCCNS(=O)(=O)c2cccc3c(N(C)C)cccc23)CC1	96 nM	–
COc1cc(N)c(Cl)cc1C(=O)OCCN1CCN(C(=O)CNS(=O)(=O)c2cccc3c(N(C)C)cccc23)CC1	1720 nM	–
COc1cc(N)c(Cl)cc1C(=O)OCCN1CCC(CNc2ccc([N+](=O)[O-])c3nonc23)CC1	–	2.1 nM
COc1cc(N)c(Cl)cc1C(=O)OCCN1CCC(CN2C(=O)c3cccc4c(N(C)C)ccc(c34)C2=O)CC1	181 nM	–
COc1cc(N)c(Cl)cc1C(=O)OCCN1CCC(CNc2ccc([N+](=O)[O-])c3n[o+][n-]c23)CC1	7.5 nM	–
COc1cc(N)c(Cl)cc1C(=O)OCCN1CCC(CCCCNS(=O)(=O)c2cccc3c(N(C)C)cccc23)CC1	24 nM	–
COc1cc(N)c(Cl)cc1C(=O)OCCN1CCC(CCCCN2C(=O)c3cccc4c(N(C)C)ccc(c34)C2=O)CC1	59 nM	–
COc1cc(N)c(Cl)cc1C(=O)OCCN1CCC(CNS(=O)(=O)c2cccc3c(N(C)C)cccc23)CC1	7 nM	5.7 nM
COc1cc(N)c(Cl)cc1C(=O)OCCN1CCC(NS(=O)(=O)c2cccc3c(N(C)C)cccc23)CC1	264 nM	–
COc1cc(N)c(Cl)cc1C(=O)OCCN1CCN(C(=O)CCNS(=O)(=O)c2cccc3c(N(C)C)cccc23)CC1	116 nM	–
